In patent US8957140B2, “Triazine derivative, ultraviolet absorber, and resin composition” (FUJIFILM Corporation, priority 2009, dated 2015):

Assay: Light resistance of PMMA polymer film (residual amount after metal halide lamp irradiation)
Assay type: physicochemical
Conditions: 0.2 mass % compound in PMMA film, 50-μm thick; metal halide lamp (about 290 nm or less cut), 90 mW/cm^2, 63° C., humidity 50%, irradiation for 600 hours; absorbance at maximum absorption wavelength
Description: A binder solution was prepared by dissolving 22 mass % of a PMMA resin (“DIANAL BR-80”, trade name, produced by Mitsubishi Rayon Co., Ltd.) in methylene chloride. […] The coating solution was applied on glass as a base material by means of a 200 μm blade and dried at 100° C. for 10 minutes to form a 50-μm thick coating, whereby a film was produced. […] The residual amount was calculated according to the following formula: Residual amount (%)=100×(absorbance after irradiation)/(absorbance before irradiation)
Incidentally, the absorbance is a value measured at the maximum absorption wavelength of each compound.

Row | Compound | Residual Amount (%)
1 | CCCCCCOc1ccc(-c2nc(-c3ccccc3)nc(-c3ccccc3)n2)c(O)c1 [Comparative Compound A] | 44
2 | CCCCCCCCOc1ccc(-c2nc(-c3ccc(C)cc3C)nc(-c3ccc(C)cc3C)n2)c(O)c1 [Comparative Compound B] | 14
